Results taken from article PMC5228037, “Discovery and Mechanistic Characterization of Selective Inhibitors of H2S-producing Enzyme: 3-Mercaptopyruvate Sulfurtransferase (3MST) Targeting Active-site Cysteine Persulfide” (Scientific Reports, 2017).

target: T1, recombinant purified m3MST (Mus musculus, UniProt Q99J99); assay: Inhibitory activity toward purified m3MST by gas chromatography; type: biochemical; conditions: 10 μM compound; 50 μM 3MP, 40 μM DTT; room temperature 3 hr; mean±S.D. n = 2; read-out: Inhibitory activity toward recombinant purified m3MST (H2S production by gas chromatography)
T1 construct: made in house; host or cells: E. coli BL21
T1 sequence (Q99J99 1-297): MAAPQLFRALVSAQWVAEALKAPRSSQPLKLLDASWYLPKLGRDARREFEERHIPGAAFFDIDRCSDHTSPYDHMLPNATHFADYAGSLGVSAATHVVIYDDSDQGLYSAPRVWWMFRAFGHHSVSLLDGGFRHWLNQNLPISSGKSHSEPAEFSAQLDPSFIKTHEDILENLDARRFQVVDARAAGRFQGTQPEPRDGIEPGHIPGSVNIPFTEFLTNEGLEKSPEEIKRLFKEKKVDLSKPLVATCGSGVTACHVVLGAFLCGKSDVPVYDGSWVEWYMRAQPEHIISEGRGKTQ
Procedure: 1 μL of 1 mM compound (final 10 μM) was diluted with 89 μL of 3MST solution (final 3.8 μg/mL) or GST solution (2.2 μg/mL) in 30 mM HEPES buffer (pH 7.4) in a 30 mL collection vial (Iwaki). 10 μL of 3MP and DTT solution (final concentration: 50 μM 3MP and 40 μM DTT) was added to 90 μL of the mixture, then the vial was sealed with parafilm and incubated at room temperature for 3 hr. After addition of 200 μL of 1 M sodium citrate buffer (pH 6.0), the mixture was incubated at 37 °C for at least 10 minutes with shaking on rotary shaker to quench the enzymatic activity and facilitate release of H2S gas from the aqueous phase. A 2 mL sample of head-space gas (total, approximately 29.5 mL) was applied to a gas chromatograph (ODSA-P2, Alpha M.O.S. Japan). The concentrations of H2S were determined from a standard curve obtained with 0 to 4 nmol of Na2S, which is a source of H2S. The protocol is illustrated in Supplementary Fig. 9.
Compound Inhibitory activity
All data are presented as the mean±S.D. (n = 2).
Supplementary Figure S9. (a) Schematic illustration of 3MST inhibitor assay by gas chromatography. (b) Inhibitory activity toward recombinant purified m3MST. Conditions: Mixtures of 10 μM test compound, 3.8 μg/mL 3MST or 2.2 μg/mL GST, 50 μM 3MP, 40 μM DTT, and 1% (v/v) DMSO in 30 mM HEPES buffer (pH 7.4) were incubated at room temperature for 3 hr.
(1 picture or pasted object on this page, not shown here)

inhibition at 10 µM	SMILES
104 ± 2.7%	NC(=O)c1ccsc1NC(=O)CSc1nc2ccccc2c(=O)[nH]1 [compound 1]
93.4 ± 0.8%	Cc1sc2nc(SCC(=O)c3ccc(O)cc3O)[nH]c(=O)c2c1C [compound 2]
90.3 ± 12%	Cc1cc(=O)[nH]c(SCC(=O)c2cccc3ccccc23)n1 [compound 3]
90.9 ± 0.9%	O=C(O)c1cccc(NS(=O)(=O)c2ccccc2)c1 [compound 5]
